Measurements published in ChEMBL document CHEMBL1201862, “PubChem BioAssay data set” (2004).
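Each compound was tested at five concentrations against cells in 96-well plates for 48 hours. GI50 is the concentration that inhibits growth by half.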 Calls of active or inactive are those of the source. No stated cut-off is given here; in the data, active = GI50 up to about 1.1 µM and inactive = higher.

Legend:
Assay in all cases: DTP human tumour cell line panel, 48 h
A549 = test system: A549
Hs-578T = test system: Hs-578T
MDA-MB-435 = test system: MDA-MB-435
NCI-H23 = test system: NCI-H23
SK-MEL-2 = test system: SK-MEL-2
HCC 2998 = test system: HCC 2998
MDA-MB-231 = test system: MDA-MB-231
BT-549 = test system: BT-549
MDA-N = test system: MDA-N
OVCAR-3 = test system: OVCAR-3
SW-620 = test system: SW-620
M14 = test system: M14
UO-31 = test system: UO-31
HCT-116 = test system: HCT-116
EKVX = test system: EKVX
CAKI-1 = test system: CAKI-1
SF-268 = test system: SF-268
OVCAR-8 = test system: OVCAR-8
SNB-75 = test system: SNB-75

Structure (SMILES)	GI50 (A549)	GI50 (Hs-578T)	GI50 (MDA-MB-435)	GI50 (NCI-H23)	GI50 (SK-MEL-2)	GI50 (HCC 2998)	GI50 (MDA-MB-231)	GI50 (BT-549)	GI50 (MDA-N)	GI50 (OVCAR-3)	GI50 (SW-620)	GI50 (M14)	GI50 (UO-31)	GI50 (HCT-116)	GI50 (EKVX)	GI50 (CAKI-1)	GI50 (SF-268)	GI50 (OVCAR-8)	GI50 (SNB-75)
O=C1NC(N2CCCCC2)=N/C1=C\c1ccco1	> 100 µM (inactive)	> 100 µM (inactive)	> 100 µM (inactive)	> 100 µM (inactive)	> 100 µM (inactive)	> 100 µM (inactive)	> 100 µM (inactive)	> 100 µM (inactive)	> 100 µM (inactive)	> 100 µM (inactive)	> 100 µM (inactive)	> 100 µM (inactive)	> 100 µM (inactive)	> 100 µM (inactive)	78.2 µM (inactive)	> 100 µM (inactive)	> 100 µM (inactive)	> 100 µM (inactive)	–
CCOC(=O)C(=Cc1ccccc1Br)C(=O)OCC	4 µM (inactive)	3.4 µM (inactive)	1.69 µM (inactive)	2.48 µM (inactive)	2.14 µM (inactive)	2.78 µM (inactive)	6.41 µM (inactive)	2.51 µM (inactive)	–	2.07 µM (inactive)	1.97 µM (inactive)	0.424 µM (active)	2.25 µM (inactive)	2.95 µM (inactive)	4.18 µM (inactive)	2.53 µM (inactive)	3.11 µM (inactive)	2.38 µM (inactive)	5.58 µM (inactive)
COc1ccc(C2c3cc4c(cc3OC(N3CCOCC3)C2C)OCO4)cc1 (centres undefined)	23.2 µM (inactive)	15.3 µM (inactive)	20.7 µM (inactive)	39 µM (inactive)	22.4 µM (inactive)	22.4 µM (inactive)	–	20.3 µM (inactive)	16.9 µM (inactive)	20.8 µM (inactive)	29.1 µM (inactive)	26.9 µM (inactive)	19.9 µM (inactive)	20.2 µM (inactive)	23.9 µM (inactive)	19.3 µM (inactive)	27.9 µM (inactive)	34.7 µM (inactive)	35.9 µM (inactive)
O=C(NNS(=O)(=O)c1ccc(Br)cc1)c1ccc(Cl)cc1NC(=O)C12CC3CC(CC(C3)C1)C2	8.15 µM (inactive)	17.4 µM (inactive)	12.4 µM (inactive)	14.2 µM (inactive)	11.8 µM (inactive)	–	–	16.7 µM (inactive)	14.2 µM (inactive)	11.6 µM (inactive)	19.5 µM (inactive)	15 µM (inactive)	11.7 µM (inactive)	21.2 µM (inactive)	11.3 µM (inactive)	17 µM (inactive)	11.4 µM (inactive)	13.6 µM (inactive)	14.2 µM (inactive)
FC(F)(F)c1nc2nc(Cl)c(Cl)nc2n1CCCN1CCOCC1	> 100 µM (inactive)	33.7 µM (inactive)	44.9 µM (inactive)	34.7 µM (inactive)	37.9 µM (inactive)	–	78.2 µM (inactive)	56 µM (inactive)	35.7 µM (inactive)	64.3 µM (inactive)	42.9 µM (inactive)	48.2 µM (inactive)	–	41.9 µM (inactive)	23.4 µM (inactive)	3.71 µM (inactive)	40.4 µM (inactive)	29.3 µM (inactive)	79.3 µM (inactive)
C[C@@H]1[C@H](O)CC2=C(CC[C@@H](O)C2(C)C)[C@@]1(CO)CCc1ccoc1	> 50 µM (inactive)	> 50 µM (inactive)	–	> 50 µM (inactive)	> 50 µM (inactive)	> 50 µM (inactive)	> 50 µM (inactive)	> 50 µM (inactive)	> 50 µM (inactive)	> 50 µM (inactive)	> 50 µM (inactive)	> 50 µM (inactive)	> 50 µM (inactive)	> 50 µM (inactive)	> 50 µM (inactive)	> 50 µM (inactive)	–	> 50 µM (inactive)	31.8 µM (inactive)
COc1cc(NS(C)(=O)=O)ccc1NCc1c[nH]c2ccc3nc(C)ccc3c12	> 100 µM (inactive)	72.1 µM (inactive)	30.2 µM (inactive)	15.8 µM (inactive)	23.8 µM (inactive)	–	61.1 µM (inactive)	> 100 µM (inactive)	41.2 µM (inactive)	27.6 µM (inactive)	30.2 µM (inactive)	56.1 µM (inactive)	28.6 µM (inactive)	42.9 µM (inactive)	> 100 µM (inactive)	20.1 µM (inactive)	28.1 µM (inactive)	50.1 µM (inactive)	22.8 µM (inactive)
COc1ccc(Cn2nc(OCc3ccccn3)c3cc([N+](=O)[O-])ccc32)cc1	> 100 µM (inactive)	> 100 µM (inactive)	> 100 µM (inactive)	> 100 µM (inactive)	49.5 µM (inactive)	> 100 µM (inactive)	> 100 µM (inactive)	> 100 µM (inactive)	> 100 µM (inactive)	> 100 µM (inactive)	> 100 µM (inactive)	> 100 µM (inactive)	> 100 µM (inactive)	–	–	> 100 µM (inactive)	> 100 µM (inactive)	63.1 µM (inactive)	–
